Assays:
[1] = Thermal stability test (storage at 40° C./75% RH for 8 weeks; HPLC content, visual discoloration, XRD); type: physicochemical; settings: for L-serine content from 0 week: before storage at 40° C./75% RH; for L-serine content from 0 week / L-serine content after 8 weeks: HPLC; for L-serine content after 8 weeks / Change in Crystal / Discoloration: after 8 weeks at 40° C./75% RH; for Change in Crystal: XRD; for Discoloration: visual
Method: After 8 weeks, each sample was taken out and the content was analyzed using high-performance liquid chromatography (HPLC), and the presence of discoloration was visually confirmed as shown in FIG. 13. High-Performance Liquid Chromatography Conditions • Equipment: Waters Alliance e2695 • Column: […] 100, 150 mm×4.6 mm×5 μm • Column temperature: 30° C. • Flow rate: 1.0 mL/min • Detection: 210 nm, UV • Injection volume: 10 μL • Total analysis time: 40 mins • Mobile phase: […]

[2] = Hygroscopicity test by dynamic vapor absorption (DVS); settings: 25° C., 2-98% relative humidity
[3] = Pharmacokinetic comparison after single oral administration; settings: 400 mg/kg oral once
[4] = Saturated solubility in purified water; type: physicochemical; settings: on first addition of purified water
Method: Then, 5 mL (or 10 mL) of this solution is taken, and placed into a 50 mL volumetric flask, purified water is filled to the mark and used as a test solution. • f. The test solution is analyzed according to HPLC operating conditions for the test of L-serine content.
b. The resulting solution is left at room temperature for 5 minutes and then vigorously mixed using a vortexer for 30 seconds.
c. The process b is repeated 6 times (about 30 minutes) and then the resultant is left at room temperature until the floating materials are settled.
d. The supernatant of the solution is placed into a 2.0 mL eppendorf tube and is subject to perform centrifugation using a centrifuge at 23° C. and 4,000 rpm for 20 minutes.
e. 1 mL of the supernatant of the solution is taken and placed into a 100 mL volumetric flask, and purified water is filled to the mark. Then, 5 mL (or 10 mL) of this solution is taken and placed into a 50 mL volumetric flask, purified water is filled to the mark, and used as a test solution.
f. The test solution is analyzed according to HPLC operating conditions for the test of L-serine content.

[5] = mice, n=5, after baseline correction, 400 mg/kg

| L-serine content from 0 week [1] [% →] | L-serine content after 8 weeks [1] [%] | Change in Crystal [1] | Discoloration [1] | relative humidity at which moisture absorption started [2] | AUC0-12 [3, 5] [µg·h/mL] | AUC0-inf [3, 5] [µg·h/mL] | CI/F [3, 5] | Cmax ([3]; mouse, blood, po, 400 mg/kg, Cmax, mice, n=5, after baseline correction) [µg/mL] | MRT inf ([3]; mouse, blood, po, 400 mg/kg, MRT0-inf, mice, n=5, after baseline correction) [h] | Tmax ([3]; mouse, blood, po, 400 mg/kg, Tmax, mice, n=5, after baseline correction) [h] | half-life ([3]; mouse, blood, po, 400 mg/kg, t1/2, mice, n=5, after baseline correction) [h] | Cmax [3, 5] [µg/mL] | MRT0-inf [3, 5] [h] | Tmax [3, 5] [h] | t1/2 [3, 5] [h] | difference in maximum blood concentration (Cmax) compared to amorphous form and type A crystalline form ([3]; mice) | increase of AUC0-12 compared to amorphous form and type A crystalline form of L-serine ([3]; mice) [times] | Remark (hardening phenomenon during dissolution) [4] | Structure (SMILES) |
| --- | --- | --- | --- | --- | --- | --- | --- | --- | --- | --- | --- | --- | --- | --- | --- | --- | --- | --- | --- |
| 99.0 | 90.4 | change in part | change to off- | 40% | 100.53 ± 20.15 | 121.45 ± 17.20 | 3.35 ± 0.43 (mg/kg)/(μg/mL)/h | 67.5 ± 25.9 | 5.11 ± 0.8 | 0.25 | 4.15 ± 0.99 | – | – | – | – | – | – | – | N[C@@H](CO)C(=O)O [Comparative Example 1, L-serine] |
| 99.1 | 93.7 | retained | change to off- | around 70% | 165.81 ± 40.99 | 177.36 ± 39.9 | 3.19 ± 0.67 (mg/kg)/(μg/mL)/h | – | – | – | – | 77.69 ± 8.49 | 3.44 ± 1.49 | 0.50 | 2.56 ± 0.76 | – | – | – | N[C@@H](CO)C(=O)O [Comparative Example 2, L-serine] |
| 99.3 | 99.2 | retained | no change | around 80% | 248.89 ± 37.34 | 296.22 ± 69.63 | 2.11 ± 0.49 (mg/kg)/(μg/mL)/h | – | – | – | – | 75.48 ± 10.70 | 5.29 ± 2.10 | 0.50 | 3.56 ± 1.36 | no significant difference | ≥ 2 | The procedure went smoothly | N[C@@H](CO)C(=O)O [Example 3, L-serine] |
